Here are results for 23 compounds from patent publication US7517874B2 (priority 2007, dated 2009).

Read-outs that look alike come from different tables or passages of the source. A value given as a limit tells only on which side of the number the result lay.

The target in test [1] is human CB1 receptor (hCB1) (Homo sapiens, UniProt P21554). Description: cell-based. Type of test: cell-based. In a few lines:
(§1)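 First, cells in IBMX-containing HEPES-buffered HBSS are raised to elevated cAMP with 2-8 μM NKH-477 for 30 min. Data are normalised to the forskolin and forskolin + 1 μM CP55,940 controls.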

The target of a further test is T1, rat CB2 receptor (rCB2) (Rattus norvegicus, UniProt Q9QZN9).
T1 sequence (Q9QZN9 1-360): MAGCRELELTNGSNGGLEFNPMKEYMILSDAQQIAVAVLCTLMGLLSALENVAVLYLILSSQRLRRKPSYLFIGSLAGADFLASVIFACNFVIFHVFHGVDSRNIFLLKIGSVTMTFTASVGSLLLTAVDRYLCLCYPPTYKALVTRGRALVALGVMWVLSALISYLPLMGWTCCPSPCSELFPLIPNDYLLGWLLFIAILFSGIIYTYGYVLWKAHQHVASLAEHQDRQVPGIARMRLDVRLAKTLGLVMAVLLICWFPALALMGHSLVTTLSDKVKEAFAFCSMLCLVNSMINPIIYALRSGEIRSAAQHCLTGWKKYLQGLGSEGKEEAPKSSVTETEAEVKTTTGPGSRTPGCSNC
The experiment in a line: cell-based. Type of test: cell-based. Particulars: for +/− RCB2: agonist or inverse agonist at rCB2. In a few lines:
as §1

The mark [2] stands for this setting: groups >100 nM-10 μM and >10 μM, cAMP, CHO-K1 hCB1, read-out: EC50 HCB1.
[3] abbreviates: groups >100 nM-10 μM and >10 μM, cAMP, CHO-K1 rCB2, read-out: EC50 RCB2.

Chain of human CB1 receptor (hCB1) (P21554 whole entry): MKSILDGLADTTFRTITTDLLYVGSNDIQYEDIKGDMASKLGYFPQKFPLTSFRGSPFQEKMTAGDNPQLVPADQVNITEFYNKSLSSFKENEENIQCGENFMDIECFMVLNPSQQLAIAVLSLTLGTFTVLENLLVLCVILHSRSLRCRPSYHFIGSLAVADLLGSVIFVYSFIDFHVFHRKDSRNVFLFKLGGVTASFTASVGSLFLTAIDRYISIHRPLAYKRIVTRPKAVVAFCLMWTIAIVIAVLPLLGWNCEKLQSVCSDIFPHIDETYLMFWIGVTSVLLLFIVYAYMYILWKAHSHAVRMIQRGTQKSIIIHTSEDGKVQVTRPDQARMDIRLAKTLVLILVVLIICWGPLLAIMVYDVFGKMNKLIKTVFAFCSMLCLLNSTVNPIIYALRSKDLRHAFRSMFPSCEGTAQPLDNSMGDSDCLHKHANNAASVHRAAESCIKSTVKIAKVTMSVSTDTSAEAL

`CNC(=O)[C@@H](NC(=O)c1nc(-c2ccccc2)n2c1CN(C(=O)CC(C)(C)C)CC2)C(C)(C)C` [Compound 188, (S)-N-(3,3-dimethyl-1-(methylamino)-1-oxobutan-2-yl)-7-(3,3-dimethylbutanoyl)-3-phenyl-5,6,7,8-tetrahydroimidazo[1,5-a]pyrazine-1-carboxamide] returned an EC50 in test [1] greater than 10000 nM. The “+/− RCB2” value at rat CB2 receptor (rCB2) was “−”.
The compound `CCC(=O)N1CCn2c(-c3ccccc3)nc(C(=O)N[C@H](C(=O)NC)C(C)(C)C)c2C1` [Compound 189, (S)-N-(3,3-dimethyl-1-(methylamino)-1-oxobutan-2-yl)-3-phenyl-7-propionyl-5,6,7,8-tetrahydroimidazo[1,5-a]pyrazine-1-carboxamide] had a 50% effective concentration (EC50) in test [1] greater than 10000 nM. The “+/− RCB2” value on rat CB2 receptor (rCB2) is “+”.
For `CNC(=O)[C@@H](NC(=O)c1nc(-c2ccccc2)n2c1CN(C(=O)C(C)(C)C)CC2)C(C)(C)C` [Compound 190, (S)-N-(3,3-dimethyl-1-(methylamino)-1-oxobutan-2-yl)-3-phenyl-7-pivaloyl-5,6,7,8-tetrahydroimidazo[1,5-a]pyrazine-1-carboxamide], in that order: greater than 10000 nM and “−”.
With `CNC(=O)[C@@H](NC(=O)c1nc(-c2ccccc2)n2c1CN(C(=O)C(C)C)CC2)C(C)(C)C` [Compound 191, (S)-N-(3,3-dimethyl-1-(methylamino)-1-oxobutan-2-yl)-7-isobutyryl-3-phenyl-5,6,7,8-tetrahydroimidazo[1,5-a]pyrazine-1-carboxamide], the concentration giving a half-maximal response (EC50) in test [1] was greater than 10000 nM. In addition, the “+/− RCB2” value on rat CB2 receptor (rCB2) was “−”.
For `CNC(=O)[C@@H](NC(=O)c1nc(-c2ccccc2)n2c1CN(C(=O)NC(C)(C)C)CC2)C(C)(C)C` [Compound 192, (S)-N7-tert-butyl-N1-(3,3-dimethyl-1-(methylamino)-1-oxobutan-2-yl)-3-phenyl-5,6-dihydroimidazo[1,5-a]pyrazine-1,7(8H)-dicarboxamide], in that order: greater than 10000 nM and “−”.
Turning to `CCCNC(=O)N1CCn2c(-c3ccccc3)nc(C(=O)N[C@H](C(=O)NC)C(C)(C)C)c2C1` [Compound 193, (S)-N1-(3,3-dimethyl-1-(methylamino)-1-oxobutan-2-yl)-3-phenyl-N7-propyl-5,6-dihydroimidazo[1,5-a]pyrazine-1,7(8H)-dicarboxamide], the EC50 in test [1] is greater than 10000 nM. Further, the “+/− RCB2” value at rat CB2 receptor (rCB2) was “−”.
With `CNC(=O)[C@@H](NC(=O)c1nc(-c2ccccc2)n2c1CN(C(=O)Nc1ccccc1)CC2)C(C)(C)C` [Compound 194, (S)-N1-(3,3-dimethyl-1-(methylamino)-1-oxobutan-2-yl)-N7,3-diphenyl-5,6-dihydroimidazo[1,5-a]pyrazine1,7-(8H)-dicarboxamide], the half-maximal effective concentration (EC50) (in test [1]; on rat CB2 receptor (rCB2)) was greater than 10000 nM in each case.
Turning to `CCCNC(=S)N1CCn2c(-c3ccccc3)nc(C(=O)N[C@H](C(=O)NC)C(C)(C)C)c2C1` [Compound 195, (S)-N-(3,3-dimethyl-1-(methylamino)-1-oxobutan-2-yl)-3-phenyl-7-(propylcarbamothioyl)-5,6,7,8-tetrahydroimidazo[1,5-a]pyrazine-1-carboxamide], the EC50 in test [1] was greater than 10000 nM. Also, the “+/− RCB2” value on rat CB2 receptor (rCB2) was “−”.
For `CN(C)C(=O)[C@@H](NC(=O)c1nc(-c2ccccc2)n2c1CNCC2)C(C)(C)C` [Compound 196, (S)-N-(1-(dimethylamino)-3,3-dimethyl-1-oxobutan-2-yl)-3-phenyl-5,6,7,8-tetrahydroimidazo[1,5-a]pyrazine-1-carboxamide], in that order: greater than 10000 nM and “−”.
Take `CNC(=O)[C@@H](NC(=O)c1nc(-c2ccccc2)n2c1CN(C1CC1)CC2)C(C)(C)C` [Compound 197, (S)-7-cyclopropyl-N-(3,3-dimethyl-1-(methylamino)-1-oxobutan-2-yl)-3-phenyl-5,6,7,8-tetrahydroimidazo[1,5-a]pyrazine-1-carboxamide]: in test [1], the 50% effective concentration (EC50) is greater than 10000 nM. Besides, the “+/− RCB2” value at rat CB2 receptor (rCB2) was “−”.
For `Cc1noc([C@@H](NC(=O)c2nc(-c3ccccc3)n3c2CN(C2CC2)CC3)C(C)(C)C)n1` [Compound 198, (S)-7-cyclopropyl-N-(2,2-dimethyl-1-(3-methyl-1,2,4-oxadiazol-5-yl)propyl)-3-phenyl--5,6,7,8-tetrahydroimidazo[1,5-a]pyrazine-1-carboxamide], in that order: greater than 10000 nM and “−”.
In test [1], `CNC(=O)[C@@H](NC(=O)c1nc(-c2ccccc2)n2c1CN(C1CC1)CCC2)C(C)(C)C` [Compound 199, (S)-8-cyclopropyl-N-(3,3-dimethyl-1-(methylamino)-1-oxobutan-2-yl)-3-phenyl-6,7,8,9-tetrahydro-5H-imidazo[1,5-a][1,4]diazepine-1-carboxamide] yielded an EC50 greater than 10000 nM. Besides, the “+/− RCB2” value at rat CB2 receptor (rCB2) is “+”.
Take `Cc1nnc([C@@H](NC(=O)c2nc(-c3ccccc3)n3c2CNCC3)C(C)(C)C)o1` [Compound 200, (S)-N-(2,2-dimethyl-1-(5-methyl-1,3,4-oxadiazol-2-yl)propyl)-3-phenyl-5,6,7,8-tetrahydroimidazo[1,5-a]pyrazine-1-carboxamide]: the EC50 in test [1] was greater than 10000 nM. For the same compound, the “+/− RCB2” value on rat CB2 receptor (rCB2) is listed as “+”.
On the same counts, the results for `Cc1nnc([C@@H](NC(=O)c2nc(-c3ccccc3)n3c2CN(C)CC3)C(C)(C)C)o1` [Compound 201, (S)-N-(2,2-dimethyl-1-(5-methyl-1,3,4-oxadiazol-2-yl)propyl)-7-methyl-3-phenyl-5,6,7,8-tetrahydroimidazo[1,5-a]pyrazine-1-carboxamide] are greater than 10000 nM and “+”.
For `Cc1nnc([C@@H](NC(=O)c2nc(-c3ccccc3)n3c2CN(CC(C)C)CC3)C(C)(C)C)o1` [Compound 202, (S)-N-(2,2-dimethyl-1-(5-methyl-1,3,4-oxadiazol-2-yl)propyl)-7-isobutyl-3-phenyl-5,6,7,8-tetrahydroimidazo[1,5-a]pyrazine-1-carboxamide], in test [1], the EC50 is greater than 10000 nM. Besides, the “+/− RCB2” value on rat CB2 receptor (rCB2) is on record as “−”.
For the compound `CNC(=O)[C@@H](NC(=O)c1nc(C#Cc2ccccc2)n2c1CN(C)CC2)C(C)(C)C` [Compound 204, (S)-N-(3,3-dimethyl-1-(methylamino)-1-oxobutan-2-yl)-7-methyl-3-(phenylethynyl)-5,6,7,8-tetrahydroimidazo[1,5-a]pyrazine-1-carboxamide], the concentration giving a half-maximal response (EC50) (in test [1]; on rat CB2 receptor (rCB2)) was greater than 10000 nM throughout.
`CNC(=O)[C@@H](NC(=O)c1nc(C#Cc2cccnc2)n2c1CN(C)CC2)C(C)(C)C` [Compound 205, (S)-N-(3,3-dimethyl-1-(methylamino)-1-oxobutan-2-yl)-7-methyl-3-(pyridin-3-ylethynyl)-5,6,7,8-tetrahydroimidazo[1,5-a]pyrazine-1-carboxamide]: the EC50 (in test [1]; at rat CB2 receptor (rCB2)) was greater than 10000 nM in each case.
The compound `CNC(=O)[C@@H](NC(=O)c1nc(-c2ccccc2)n2c1CN(C)CC2)C(C)C` [Compound 206, (S)-7-methyl-N-(3-methyl-1-(methylamino)-1-oxobutan-2-yl)-3-phenyl-5,6,7,8-tetrahydroimidazo[1,5-a]pyrazine-1-carboxamide] gave a half-maximal effective concentration (EC50) in test [1] greater than 10000 nM. Further, the “+/− RCB2” value at rat CB2 receptor (rCB2) is reported as “+”.
Consider `CNC(=O)[C@@H](NC(=O)c1nc(-c2ccccc2)n2c1CN(C)CC2)c1ccccc1` [Compound 207, (S)-7-methyl-N-(2-(methylamino)-2-oxo-1-phenylethyl)-3-phenyl-5,6,7,8-tetrahydroimidazo[1,5-a]pyrazine-1-carboxamide], for which the EC50 in test [1] was greater than 10000 nM. Besides, the “+/− RCB2” value on rat CB2 receptor (rCB2) was “+”.
`CN1CCn2c(-c3ccc(Cl)cc3F)nc(C(=O)Nc3ccc(S(N)(=O)=O)cc3)c2C1` [Compound 208, 3-(4-chloro-2-fluorophenyl)-7-methyl-N-(4-sulfamoylphenyl)-5,6,7,8-tetrahydroimidazo[1,5-a]pyrazine-1-carboxamide] returned an EC50 in test [1] greater than 10000 nM. Besides, at rat CB2 receptor (rCB2), the “+/− RCB2” value is reported as “−”.
Regarding `CN1CCn2c(-c3ccc(Cl)cc3F)nc(C(=O)NC3CCN(C(=O)OC(C)(C)C)CC3)c2C1` [Compound 209, tert-butyl 4-(3-(4-chloro-2-fluorophenyl)-7-methyl-5,6,7,8-tetrahydroimidazo[1,5-a]pyrazine-1-carboxamido)piperidine-1-carboxylate], the half-maximal effective concentration (EC50) (in test [1]; on rat CB2 receptor (rCB2)) was greater than 10000 nM in each case.
Regarding `CN1CCn2c(-c3ccc(Cl)cc3F)nc(C(=O)N3CCN(C(=O)c4ccccc4)CC3)c2C1` [Compound 210, (4-benzoylpiperazin-1-yl)(3-(4-chloro-2-fluorophenyl)-7-methyl-5,6,7,8-tetrahydroimidazo[1,5-a]pyrazin-1-yl)methanone], the EC50 (in test [1] (setting [2]); on rat CB2 receptor (rCB2) (setting [3])) was greater than 10000 nM each time.
Take `CN1CCn2c(-c3ccc(Cl)cc3F)nc(C(=O)N3CCN(c4ncccn4)CC3)c2C1` [Compound 211, (3-(4-chloro-2-fluorophenyl)-7-methyl-5,6,7,8-tetrahydroimidazo[1,5-a]pyrazin-1-yl)(4-(pyrimidin-2-yl)piperazin-1-yl)methanone]: the half-maximal effective concentration (EC50) (in test [1] (setting [2]); on rat CB2 receptor (rCB2) (setting [3])) was greater than 10000 nM throughout.

Broadly, the EC50 is the concentration giving half of the maximal effect.
